Assay results: patent US12441768B2, “Compositions and methods for treating endometriosis” (EndoMet Biosciences, Inc., priority 2018, dated 2025)
Where two headings read alike, the source gives them in different places. *1 amine or outer side, *2 acyl side, *3 side chain or, on linkers, in order; H or OH if unused. Where a SMILES comes first, the peptide text is derived from it. [ ]: non-standard residue; d: D form. ξ: configuration not given here. X4 = CC[C@@H](C)C(N[*:1])C(=O)[*:2]; ξW = NC(Cc1c[nH]c2ccccc12)C(=O)O; ξL = CC(C)CC(N)C(=O)O; ξC = NC(CS)C(=O)O; βAla = NCCC(=O)O

Biological target: T1, β-catenin (Homo sapiens, UniProt P35222)
T1 sequence (P35222 1-781): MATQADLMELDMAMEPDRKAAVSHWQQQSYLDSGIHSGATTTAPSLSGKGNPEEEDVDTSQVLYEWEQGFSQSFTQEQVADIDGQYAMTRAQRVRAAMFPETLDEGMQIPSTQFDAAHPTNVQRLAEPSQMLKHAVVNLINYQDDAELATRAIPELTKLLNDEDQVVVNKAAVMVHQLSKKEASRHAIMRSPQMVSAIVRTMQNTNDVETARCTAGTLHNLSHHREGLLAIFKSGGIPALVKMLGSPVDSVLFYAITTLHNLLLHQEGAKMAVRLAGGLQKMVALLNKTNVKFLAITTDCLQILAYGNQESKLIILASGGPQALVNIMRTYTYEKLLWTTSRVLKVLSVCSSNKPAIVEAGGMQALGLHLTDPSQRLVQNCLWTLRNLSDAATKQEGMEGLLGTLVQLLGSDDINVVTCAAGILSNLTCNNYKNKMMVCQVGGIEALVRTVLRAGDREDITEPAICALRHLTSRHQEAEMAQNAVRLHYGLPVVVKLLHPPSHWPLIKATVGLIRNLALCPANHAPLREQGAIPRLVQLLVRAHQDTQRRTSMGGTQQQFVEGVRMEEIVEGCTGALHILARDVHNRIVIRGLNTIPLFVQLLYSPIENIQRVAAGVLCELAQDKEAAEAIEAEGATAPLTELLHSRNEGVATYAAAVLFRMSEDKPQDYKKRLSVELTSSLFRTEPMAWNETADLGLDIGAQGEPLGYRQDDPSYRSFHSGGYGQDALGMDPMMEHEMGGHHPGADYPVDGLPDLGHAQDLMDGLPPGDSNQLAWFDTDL
Assay: KD50 measurement using competitive fluorescence polarization (FP) with labelled TCF4
Format: binding
Conditions: fluorescence polarization, β-catenin
Summary of the method: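 Competitive FP in which unlabelled inhibitor (10 nM to 30 uM dilution series) displaces 5 nM labelled TCF4 from 100 nM β-catenin, room temperature. Read-out ex 470 nm, em 520 nm; experiment repeated three times.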

Compound	Kd (read-out: β-Cat FP KD) [nM]	β-Cat FP Hill slope	Kd (β-Cat FP KD) [nM]
CC[C@@H](C)C(NC(=O)C(CC(C)C)NC(=O)[C@H](Cc1ccccc1)NC(=O)C(Cc1c[nH]c2ccccc12)NC(=O)[C@H](CCCCN)NC(C)=O)C(=O)NC(CS)C(=O)N[C@@H](C)C(=O)NC(Cc1c[nH]c2ccccc12)C(=O)NCCC(=O)O (some centres unmarked) [compound 235] (Ac-K[ξW]F[ξL][X4][ξC]A[ξW][βAla]-OH)	> 30000		
CCCCCCCCC(=O)N[C@@H](Cc1c[nH]c2ccccc12)C(=O)N(C)[C@@H](C)C(=O)N[C@@H](CCC(N)=O)C(=O)N[C@H]1CCCNC(=O)CC[C@@H](C(=O)N[C@@H](Cc2c[nH]cn2)C(=O)N[C@H](C(=O)N[C@@H](CCC(N)=O)C(=O)N[C@@H](CCCNC(=N)N)C(=O)N[C@H](C(=O)N[C@@H](Cc2c[nH]c3ccccc23)C(=O)NCC(N)=O)C(C)C)C2CCCCC2)NC(=O)[C@H](CC(=O)O)NC(=O)[C@H](CC(C)C)NC(=O)[C@H]([C@@H](C)CC)NC1=O [compound 425] (HELM PEPTIDE1{[CCCCCCCCC(=O)[*:2]].W.[meA].Q.[Orn].I.L.D.E.H.[O=C([C@@H](N[*:1])C1CCCCC1)[*:2]].Q.R.V.W.G.[am]}$PEPTIDE1,PEPTIDE1,5:R3-9:R3$$$V2.0)	< 400		
CC[C@H](C)[C@H](NC(=O)[C@H](CC(C)C)NC(=O)[C@H](Cc1ccccc1)NC(C)=O)C(=O)N[C@@H](CO)C(=O)N[C@@H](Cc1ccccc1)C(=O)N[C@@H](Cc1c[nH]c2ccccc12)C(=O)NCC(=O)O [compound 239] (Ac-FLISFWG-OH)	1000 to 10000	0.7	
CCCCCCCCC(=O)N[C@@H](Cc1c[nH]c2ccccc12)C(=O)N(C)[C@@H](C)C(=O)N[C@@H](CCC(N)=O)C(=O)N[C@H]1CCCCNC(=O)C[C@@H](C(=O)N[C@@H](Cc2c[nH]cn2)C(=O)N[C@H](C(=O)N[C@@H](CCC(N)=O)C(=O)N[C@@H](CCCNC(=N)N)C(=O)N[C@H](C(=O)N[C@@H](Cc2c[nH]c3ccccc23)C(=O)NCC(N)=O)C(C)C)C2CCCCC2)NC(=O)[C@H](CC(=O)O)NC(=O)[C@H](CC(C)C)NC(=O)[C@H]([C@@H](C)CC)NC1=O [compound 431] (HELM PEPTIDE1{[CCCCCCCCC(=O)[*:2]].W.[meA].Q.K.I.L.D.D.H.[O=C([C@@H](N[*:1])C1CCCCC1)[*:2]].Q.R.V.W.G.[am]}$PEPTIDE1,PEPTIDE1,5:R3-9:R3$$$V2.0)	< 400		
CSCC[C@H](N)C(=O)N[C@@H](Cc1c[nH]c2ccccc12)C(=O)N[C@@H](Cc1ccccc1)C(=O)N[C@@H](CC(C)C)C(=O)N[C@@H](C)C(=O)N[C@@H](CO)C(=O)N[C@@H](Cc1ccccc1)C(=O)N[C@@H](Cc1c[nH]c2ccccc12)C(=O)NCC(=O)O [compound 11] (H-MWFLASFWG-OH)	400 to 1000	1.31	
CC[C@H](C)[C@@H]1NC(=O)[C@@H](NC(=O)[C@H](CCC(N)=O)NC(=O)[C@H](C)N(C)C(=O)[C@H](Cc2c[nH]c3ccccc23)NC(C)=O)CCCCNC(=O)CC[C@@H](C(=O)N[C@@H](Cc2c[nH]cn2)C(=O)N[C@H](C(=O)N[C@H]2CCC(=O)NCCCC[C@@H](C(N)=O)NC(=O)[C@H](Cc3c[nH]c4ccccc34)NC(=O)[C@H](C(C)C)NC(=O)[C@H](CC(=O)O)NC2=O)C2CCCCC2)NC(=O)[C@H](CC(=O)O)NC(=O)[C@H](CC(C)C)NC1=O [compound 464] (HELM PEPTIDE1{[ac].W.[meA].Q.K.I.L.D.E.H.[O=C([C@@H](N[*:1])C1CCCCC1)[*:2]].E.D.V.W.K.[am]}$PEPTIDE1,PEPTIDE1,5:R3-9:R3|PEPTIDE1,PEPTIDE1,12:R3-16:R3$$$V2.0; bridges inferred)		0.7	
CC[C@H](C)[C@@H]1NC(=O)[C@@H](NC(=O)[C@H](CCC(N)=O)NC(=O)[C@H](C)N(C)C(=O)[C@H](Cc2c[nH]c3ccccc23)NC(C)=O)CCCNC(=O)CC[C@@H](C(=O)N[C@@H](Cc2c[nH]cn2)C(=O)N[C@H](C(=O)N[C@@H](CCC(N)=O)C(=O)N[C@@H](CCCNC(=N)N)C(=O)N[C@H](C(=O)N[C@@H](Cc2c[nH]c3ccccc23)C(=O)NCC(N)=O)C(C)C)C2CCCCC2)NC(=O)[C@H](CC(=O)O)NC(=O)[C@H](CC(C)C)NC1=O [compound 424] (HELM PEPTIDE1{[ac].W.[meA].Q.[Orn].I.L.D.E.H.[O=C([C@@H](N[*:1])C1CCCCC1)[*:2]].Q.R.V.W.G.[am]}$PEPTIDE1,PEPTIDE1,5:R3-9:R3$$$V2.0)	< 400	0.7	
CC[C@H](C)[C@@H]1NC(=O)[C@@H](NC(=O)[C@H](CCC(N)=O)NC(=O)[C@H](C)N(C)C(=O)[C@H](Cc2c[nH]c3ccccc23)NC(=O)COc2ccccc2)CCCCNC(=O)CC[C@@H](C(=O)N[C@@H](Cc2c[nH]cn2)C(=O)N[C@H](C(=O)N[C@@H](CCC(N)=O)C(=O)N[C@@H](CCCNC(=N)N)C(=O)N[C@H](C(=O)N[C@@H](Cc2c[nH]c3ccccc23)C(=O)NCC(N)=O)C(C)C)C(C)C)NC(=O)[C@H](CC(=O)O)NC(=O)[C@H](CC2CCCCC2)NC1=O [compound 408] (HELM PEPTIDE1{[O=C(COc1ccccc1)[*:2]].W.[meA].Q.K.I.[Cha].D.E.H.V.Q.R.V.W.G.[am]}$PEPTIDE1,PEPTIDE1,5:R3-9:R3$$$V2.0)			> 30000
CC[C@H](C)[C@@H]1NC(=O)[C@H](CC(C)C)NC(=O)[C@H](Cc2ccccc2)NC(=O)[C@H](Cc2c[nH]c3ccccc23)NC(=O)[C@@H](N)CCCCNC(=O)CN(CC(=O)O)C(=O)[C@H](Cc2c[nH]c3ccccc23)NC(=O)[C@H](C)NC(=O)[C@H](CS)NC1=O [compound 284]		0.7	
CC[C@H](C)[C@@H]1NC(=O)[C@@H](NC(=O)[C@H](CCC(N)=O)NC(=O)[C@H](C)N(C)C(=O)[C@H](Cc2c[nH]c3ccccc23)NC(=O)CCNC(C)=O)CCCCNC(=O)CC[C@@H](C(=O)N[C@@H](Cc2c[nH]cn2)C(=O)N[C@H](C(=O)N[C@@H](CCC(N)=O)C(=O)N[C@@H](CCCNC(=N)N)C(=O)N[C@H](C(=O)N[C@@H](Cc2c[nH]c3ccccc23)C(=O)NCC(N)=O)C(C)C)C2CCCCC2)NC(=O)[C@H](CC(=O)O)NC(=O)[C@H](CC(C)C)NC1=O [compound 419] (HELM PEPTIDE1{[ac].[bAla].W.[meA].Q.K.I.L.D.E.H.[O=C([C@@H](N[*:1])C1CCCCC1)[*:2]].Q.R.V.W.G.[am]}$PEPTIDE1,PEPTIDE1,6:R3-10:R3$$$V2.0)	< 400	0.7	
CC[C@H](C)[C@H](NC(=O)[C@H](CC(C)C)NC(=O)[C@@H](N)Cc1ccccc1)C(=O)N[C@@H](CO)C(=O)N[C@@H](Cc1ccccc1)C(=O)N[C@@H](Cc1c[nH]c2ccccc12)C(=O)NCC(=O)O [compound 241] (H-FLISFWG-OH)	1000 to 10000	0.7	
CC[C@H](C)[C@@H]1NC(=O)[C@H](CC(C)C)NC(=O)[C@H](Cc2ccccc2)NC(=O)[C@@H](N)CCCCNC(=O)C[C@@H](C(=O)O)NC(=O)[C@H](Cc2c[nH]c3ccccc23)NC(=O)[C@H](Cc2ccccc2)NC(=O)[C@H](C)NC1=O [compound 253] (HELM PEPTIDE1{K.F.L.I.A.F.W.D}$PEPTIDE1,PEPTIDE1,1:R3-8:R3$$$V2.0)	> 30000		
CC[C@H](C)[C@H](NC(=O)[C@H](CC(C)C)NC(C)=O)C(=O)N[C@@H](CO)C(=O)N[C@@H](Cc1ccccc1)C(=O)N[C@@H](Cc1c[nH]c2ccccc12)C(=O)NCC(=O)O [compound 238] (Ac-LISFWG-OH)	10000 to 30000	0.7	
CC[C@H](C)[C@H](NC(=O)[C@H](CC(C)C)NC(=O)[C@H](Cc1ccccc1)NC(=O)[C@H](Cc1c[nH]c2ccccc12)NC(=O)[C@@H](N)CCSC)C(=O)N[C@@H](C)C(=O)N[C@@H](Cc1ccccc1)C(=O)N[C@@H](Cc1c[nH]c2ccccc12)C(=O)NCC(=O)O [compound 10] (H-MWFLIAFWG-OH)	1000 to 10000	0.73	
CC[C@H](C)[C@H](NC(=O)[C@H](CO)NC(=O)[C@H](CCC(N)=O)NC(=O)[C@H](C)N(C)C(=O)[C@H](Cc1c[nH]c2ccccc12)NC(C)=O)C(=O)N[C@@H](CC(C)C)C(=O)N[C@@H](CC(=O)O)C(=O)N[C@H]1CCC(=O)NCCCC[C@@H](C(=O)N[C@H](C(=O)N[C@@H](Cc2c[nH]c3ccccc23)C(N)=O)C(C)C)NC(=O)[C@H](CCC(N)=O)NC(=O)[C@H](C2CCCCC2)NC(=O)[C@H](Cc2c[nH]cn2)NC1=O [compound 466] (HELM PEPTIDE1{[ac].W.[meA].Q.S.I.L.D.E.H.[O=C([C@@H](N[*:1])C1CCCCC1)[*:2]].Q.K.V.W.[am]}$PEPTIDE1,PEPTIDE1,9:R3-13:R3$$$V2.0)	< 400	0.72	
